From patent US20210255193A1, “LYSINE REACTIVE PROBES AND USES THEREOF” (The Scripps Research Institute, priority 2017, published 2021)

Experiments:
Experiment in all cases: competitive isoTOP-ABPP
Format in all cases: binding
[1] = biological target: T1, PFKL 6-phosphofructokinase, liver type (Homo sapiens, UniProt P17858); details: for isoTOP-ABPP ratio, lysine P17858_K677: possible other lysine P17858_K681; for isoTOP-ABPP ratio, lysine P17858_K715: possible other lysine P17858_K714
T1 construct: isoTOP-ABPP experiments performed in cell lysates (in vitro); endogenous in cells; host or cells: soluble proteome of human cancer cell lines (MDA-MB-231; Ramos and Jurkat also prepared)
T1 sequence (P17858 1-780): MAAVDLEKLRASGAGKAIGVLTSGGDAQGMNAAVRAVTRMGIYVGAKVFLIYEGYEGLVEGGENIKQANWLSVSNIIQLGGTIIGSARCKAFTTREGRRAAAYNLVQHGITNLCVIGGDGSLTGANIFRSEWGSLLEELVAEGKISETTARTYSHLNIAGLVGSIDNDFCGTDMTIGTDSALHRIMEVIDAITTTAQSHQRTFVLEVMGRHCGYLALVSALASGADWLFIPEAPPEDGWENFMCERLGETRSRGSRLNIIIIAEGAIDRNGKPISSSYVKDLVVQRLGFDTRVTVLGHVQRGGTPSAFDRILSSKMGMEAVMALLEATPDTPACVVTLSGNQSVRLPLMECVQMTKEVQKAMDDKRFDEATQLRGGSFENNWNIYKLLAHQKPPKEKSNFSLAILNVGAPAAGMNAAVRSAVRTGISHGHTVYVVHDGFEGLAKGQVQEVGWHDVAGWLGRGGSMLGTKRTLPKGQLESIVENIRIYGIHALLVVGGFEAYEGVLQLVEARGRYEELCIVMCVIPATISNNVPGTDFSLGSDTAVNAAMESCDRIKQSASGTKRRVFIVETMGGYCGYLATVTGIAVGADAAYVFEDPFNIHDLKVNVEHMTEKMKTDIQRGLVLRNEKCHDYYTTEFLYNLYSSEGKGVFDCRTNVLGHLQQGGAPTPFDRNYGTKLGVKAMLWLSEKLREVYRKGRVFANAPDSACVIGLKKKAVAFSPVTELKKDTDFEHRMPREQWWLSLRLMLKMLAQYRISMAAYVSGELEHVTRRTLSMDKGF
Outline: (§1)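 Here, isoTOP-ABPP measures loss of STP-alkyne labeling at individual lysines after fragment exposure in lysate. Activated esters are dosed at 50 μM, guanidinylating agents at 100 μM; the probe follows at 0.1 mM for 1 h. R ≥4 marks a liganded lysine.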

[2] = biological target: T2, GTPBP3 tRNA modification GTPase GTPBP3, mitochondrial (Homo sapiens, UniProt Q969Y2)
T2 construct: isoTOP-ABPP experiments performed in cell lysates (in vitro); endogenous in cells; host or cells: soluble proteome of human cancer cell lines (MDA-MB-231; Ramos and Jurkat also prepared)
T2 sequence (Q969Y2 21-492): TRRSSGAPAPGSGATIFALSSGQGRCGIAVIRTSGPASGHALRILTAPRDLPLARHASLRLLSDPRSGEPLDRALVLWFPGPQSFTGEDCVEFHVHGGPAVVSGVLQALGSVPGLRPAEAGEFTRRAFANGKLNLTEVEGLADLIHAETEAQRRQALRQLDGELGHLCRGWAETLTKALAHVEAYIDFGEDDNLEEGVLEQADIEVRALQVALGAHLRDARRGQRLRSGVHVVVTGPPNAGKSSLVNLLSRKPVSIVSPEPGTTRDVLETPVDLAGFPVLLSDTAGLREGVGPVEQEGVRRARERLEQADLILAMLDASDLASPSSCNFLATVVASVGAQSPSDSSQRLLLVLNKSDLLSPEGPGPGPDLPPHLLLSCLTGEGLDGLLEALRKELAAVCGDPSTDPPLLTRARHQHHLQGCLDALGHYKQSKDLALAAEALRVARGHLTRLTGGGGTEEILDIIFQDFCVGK
Outline: as §1

DCTN2 Dynactin subunit 2 = biological target: T3, DCTN2 Dynactin subunit 2 (Homo sapiens, UniProt Q13561)
T3 construct: isoTOP-ABPP experiments performed in cell lysates (in vitro); endogenous in cells; host or cells: soluble proteome of human cancer cell lines (MDA-MB-231, Ramos, Jurkat)
Outline: as §1

T3 sequence (Q13561 whole entry): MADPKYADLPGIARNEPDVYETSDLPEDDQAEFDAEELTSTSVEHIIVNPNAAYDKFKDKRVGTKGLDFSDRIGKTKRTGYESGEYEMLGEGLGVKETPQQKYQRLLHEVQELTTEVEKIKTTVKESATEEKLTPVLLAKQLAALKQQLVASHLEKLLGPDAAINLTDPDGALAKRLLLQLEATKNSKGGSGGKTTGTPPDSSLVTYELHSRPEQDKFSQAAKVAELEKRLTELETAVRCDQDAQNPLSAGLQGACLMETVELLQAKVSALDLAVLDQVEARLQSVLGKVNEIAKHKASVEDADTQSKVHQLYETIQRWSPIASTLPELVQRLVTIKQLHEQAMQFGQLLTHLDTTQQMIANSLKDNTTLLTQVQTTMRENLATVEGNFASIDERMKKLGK

O=C(ON1C(=O)CCC1=O)c1cc(C(F)(F)F)cc(C(F)(F)F)c1 [fragment 46, 3,5-Bis(trifluoromethyl)benzoic acid NHS ester]
isoTOP-ABPP ratio, lysine P17858_K315 ([1]; 50 uM_231_sol_in vitro): 0.6 | isoTOP-ABPP ratio, lysine P17858_K677 ([1]; 50 uM_231_sol_in vitro): 1.4 | isoTOP-ABPP ratio, lysine P17858_K715 ([1]; 50 uM_231_sol_in vitro): 0.8 | isoTOP-ABPP ratio, lysine Q969Y2_K492 ([2]; 50 uM_231_sol_in vitro): 1.9 | isoTOP-ABPP ratio, lysine Q13561_K175 (DCTN2 Dynactin subunit 2; 50 uM_231_sol_in vitro): 0.8

O=C(Oc1c(F)c(F)c(C(F)(F)F)c(F)c1F)c1cc(C(F)(F)F)cc(C(F)(F)F)c1 [fragment 47, 2,3,5,6-Tetrafluoro-4-(trifluoromethyl)phenyl 3,5-bis(trifluoromethyl)benzoate]
isoTOP-ABPP ratio, lysine P17858_K315 ([1]; 50 uM_231_sol_in vitro): 1.0 | isoTOP-ABPP ratio, lysine P17858_K677 ([1]; 50 uM_231_sol_in vitro): 1.0 | isoTOP-ABPP ratio, lysine P17858_K715 ([1]; 50 uM_231_sol_in vitro): 1.0 | isoTOP-ABPP ratio, lysine Q969Y2_K492 ([2]; 50 uM_231_sol_in vitro): 1.7 | isoTOP-ABPP ratio, lysine Q13561_K175 (DCTN2 Dynactin subunit 2; 50 uM_231_sol_in vitro): 1.0

O=C(Oc1c(F)c(F)cc(F)c1F)c1cc(C(F)(F)F)cc(C(F)(F)F)c1 [fragment 48, 2,3,5,6-Tetrafluorophenyl 3,5-bis(trifluoromethyl)benzoate]
isoTOP-ABPP ratio, lysine P17858_K315 ([1]; 50 uM_231_sol_in vitro): 0.7 | isoTOP-ABPP ratio, lysine P17858_K677 ([1]; 50 uM_231_sol_in vitro): 0.9 | isoTOP-ABPP ratio, lysine P17858_K715 ([1]; 50 uM_231_sol_in vitro): 1.0 | isoTOP-ABPP ratio, lysine Q969Y2_K492 ([2]; 50 uM_231_sol_in vitro): 1.4 | isoTOP-ABPP ratio, lysine Q13561_K175 (DCTN2 Dynactin subunit 2; 50 uM_231_sol_in vitro): 0.7

CC(C)(C)OC(=O)N=C(NC(=O)OC(C)(C)C)n1cccn1 [fragment 50, reference compound]
isoTOP-ABPP ratio, lysine P17858_K677 ([1]; 100 uM_231_sol_in vitro): 20.0 | isoTOP-ABPP ratio, lysine P17858_K715 ([1]; 100 uM_231_sol_in vitro): 2.9 | isoTOP-ABPP ratio, lysine Q969Y2_K492 ([2]; 100 uM_231_sol_in vitro): 0.9 | isoTOP-ABPP ratio, lysine Q13561_K175 (DCTN2 Dynactin subunit 2; 100 uM_231_sol_in vitro): 1.3
